In ChEMBL document CHEMBL1201862, “PubChem BioAssay data set” (2004):
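Method: 48-hour compound exposure of cells in 96-well plates, five concentrations, linear interpolation of endpoints. Here, GI50 denotes the concentration required for 50% inhibition of growth.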 Calls of active or inactive are those of the source. No stated cut-off is given here; in the data, active = GI50 up to about 1.1 µM and inactive = higher.

What was measured:
Assay in all cases: NCI-60 cell line screen, 48 h
A498 = tested on: A498
RXF 393 = tested on: RXF 393
HT-29 = tested on: HT-29
NCI-H460 = tested on: NCI-H460
OVCAR-5 = tested on: OVCAR-5
UACC-62 = tested on: UACC-62
Hs-578T = tested on: Hs-578T
ACHN = tested on: ACHN
SF-268 = tested on: SF-268
SN12C = tested on: SN12C
OVCAR-4 = tested on: OVCAR-4
SNB-75 = tested on: SNB-75
HOP-92 = tested on: HOP-92
CCRF-CEM = tested on: CCRF-CEM
SNB-19 = tested on: SNB-19
Malme-3M = tested on: Malme-3M
U-251 = tested on: U-251
OVCAR-3 = tested on: OVCAR-3
DU-145 = tested on: DU-145
EKVX = tested on: EKVX

| Structure (SMILES) | GI50 (A498) | GI50 (RXF 393) | GI50 (HT-29) | GI50 (NCI-H460) | GI50 (OVCAR-5) | GI50 (UACC-62) | GI50 (Hs-578T) | GI50 (ACHN) | GI50 (SF-268) | GI50 (SN12C) | GI50 (OVCAR-4) | GI50 (SNB-75) | GI50 (HOP-92) | GI50 (CCRF-CEM) | GI50 (SNB-19) | GI50 (Malme-3M) | GI50 (U-251) | GI50 (OVCAR-3) | GI50 (DU-145) | GI50 (EKVX) |
| --- | --- | --- | --- | --- | --- | --- | --- | --- | --- | --- | --- | --- | --- | --- | --- | --- | --- | --- | --- | --- |
| COc1c(Cl)nc2ccccc2c1N=[N+]=[N-] | 12.4 µM (inactive) | 30.1 µM (inactive) | > 100 µM (inactive) | > 100 µM (inactive) | > 100 µM (inactive) | 54.2 µM (inactive) | 28.3 µM (inactive) | 43.4 µM (inactive) | 28.7 µM (inactive) | 92 µM (inactive) | > 100 µM (inactive) | 63 µM (inactive) | 22.2 µM (inactive) | 88.9 µM (inactive) | > 100 µM (inactive) | > 100 µM (inactive) | > 100 µM (inactive) | > 100 µM (inactive) | > 100 µM (inactive) |  |
| O=C1CCCN1C(=O)CS(=O)(=O)c1ccccc1 | > 100 µM (inactive) | > 100 µM (inactive) | > 100 µM (inactive) | > 100 µM (inactive) | > 100 µM (inactive) | > 100 µM (inactive) | > 100 µM (inactive) | > 100 µM (inactive) | > 100 µM (inactive) | > 100 µM (inactive) | > 100 µM (inactive) | > 100 µM (inactive) | > 100 µM (inactive) | > 100 µM (inactive) | > 100 µM (inactive) | > 100 µM (inactive) | > 100 µM (inactive) | > 100 µM (inactive) | > 100 µM (inactive) |  |
| CC(=O)OCC1OC(O[C@@H]2C[C@H]3C(C)(C)[C@@H](OC(C)=O)CC[C@]3(C)[C@H]3CC[C@]45C[C@]4(CC[C@H]5[C@@H](C)C[C@@H](O)[C@H](O)C(C)(C)F)[C@@]32C)C(O)C(O)C1O (stereo partly drawn) | 18.2 µM (inactive) | 57.5 µM (inactive) | 1.64 µM (inactive) | 16.9 µM (inactive) | 1.47 µM (inactive) | 23.9 µM (inactive) | 1.84 µM (inactive) | 37.5 µM (inactive) | 1.47 µM (inactive) | 1.73 µM (inactive) | 65.9 µM (inactive) |  | 1.93 µM (inactive) | 1.21 µM (inactive) | 1.68 µM (inactive) | 1.71 µM (inactive) | 18.2 µM (inactive) | 30.1 µM (inactive) | > 100 µM (inactive) | 1.61 µM (inactive) |
| Nc1ccc(S(=O)(=O)c2ccc(NC(=O)c3cccnc3)cc2)cc1 | > 100 µM (inactive) | 56.4 µM (inactive) | > 100 µM (inactive) | > 100 µM (inactive) | > 100 µM (inactive) | > 100 µM (inactive) | 80.9 µM (inactive) | > 100 µM (inactive) | > 100 µM (inactive) | > 100 µM (inactive) | 62.4 µM (inactive) | 30.8 µM (inactive) | > 100 µM (inactive) |  | > 100 µM (inactive) | > 100 µM (inactive) | > 100 µM (inactive) | > 100 µM (inactive) | > 100 µM (inactive) | 64.9 µM (inactive) |
| Cc1noc(/N=C2\C=C(O)C(=O)c3ccccc32)c1C | 29.2 µM (inactive) |  | 17.6 µM (inactive) | 2.36 µM (inactive) | 9.27 µM (inactive) | 2.14 µM (inactive) | 2.24 µM (inactive) | 13 µM (inactive) | 16.9 µM (inactive) | 0.918 µM (active) | 19.5 µM (inactive) | 3.5 µM (inactive) | 18.8 µM (inactive) |  | 3.91 µM (inactive) | 2.55 µM (inactive) | 1.03 µM (active) | 4.31 µM (inactive) | 11.4 µM (inactive) | 37.8 µM (inactive) |
| C=C(C)CCC1CC=[N+]([O-])OC1C(C)(C)C (stereo not drawn) | > 100 µM (inactive) | 18.2 µM (inactive) | 44.5 µM (inactive) | 51.8 µM (inactive) | > 100 µM (inactive) | 36.3 µM (inactive) | 36.6 µM (inactive) | 68.9 µM (inactive) | 58.9 µM (inactive) | 49.4 µM (inactive) |  | 31.3 µM (inactive) | > 100 µM (inactive) | 11.4 µM (inactive) |  |  | 46.9 µM (inactive) | 66.1 µM (inactive) | 37.4 µM (inactive) | 68.2 µM (inactive) |
| CCOC(=O)[C@@]12CCC(C1=O)[C@](C)(O)C[C@@H]2c1ccccc1 |  | 29.3 µM (inactive) | 29.2 µM (inactive) | 39.2 µM (inactive) | 80.9 µM (inactive) | 29.7 µM (inactive) | 22.6 µM (inactive) | 53.2 µM (inactive) | 36.2 µM (inactive) | 24.8 µM (inactive) | > 100 µM (inactive) | 33 µM (inactive) | 55.1 µM (inactive) | 79.4 µM (inactive) | 43.7 µM (inactive) | 37.6 µM (inactive) | 33.7 µM (inactive) | 28.2 µM (inactive) | 85.9 µM (inactive) | 57.1 µM (inactive) |
| Nc1cccc(C#Cc2cccc(C#Cc3cccc(N)n3)n2)n1 | > 100 µM (inactive) | > 100 µM (inactive) |  | 37.2 µM (inactive) | > 100 µM (inactive) | > 100 µM (inactive) | > 100 µM (inactive) | > 100 µM (inactive) | > 100 µM (inactive) | 79.3 µM (inactive) | > 100 µM (inactive) | > 100 µM (inactive) | > 100 µM (inactive) | 5.85 µM (inactive) | > 100 µM (inactive) |  | > 100 µM (inactive) | > 100 µM (inactive) | > 100 µM (inactive) | > 100 µM (inactive) |
| N#CC1=C(N)OC(c2cccc([N+](=O)[O-])c2)C1(C#N)C#N (stereo not drawn) | 19.7 µM (inactive) | 20 µM (inactive) | 19.1 µM (inactive) |  | 20.6 µM (inactive) | 26.6 µM (inactive) | 84.3 µM (inactive) | 18.2 µM (inactive) | 26.5 µM (inactive) | 33.2 µM (inactive) |  | 0.78 µM (active) | 16.8 µM (inactive) |  | 21.8 µM (inactive) | 18.3 µM (inactive) | 39.9 µM (inactive) |  | 17.3 µM (inactive) | 22.1 µM (inactive) |
| NCCCn1c2ccccc2c2c3c(c4c(c21)CCC(O)CC4)C(=O)NC3=O (stereo not drawn) | 9.38 µM (inactive) | 2.15 µM (inactive) | 0.729 µM (active) | 2.06 µM (inactive) | 2.24 µM (inactive) | 4.12 µM (inactive) | 3.13 µM (inactive) | 1.79 µM (inactive) | 1.58 µM (inactive) | 2.42 µM (inactive) | 1.85 µM (inactive) |  | 2.71 µM (inactive) | 0.962 µM (active) |  | 2.14 µM (inactive) | 1.75 µM (inactive) | 2.55 µM (inactive) | 3.7 µM (inactive) | 9.18 µM (inactive) |
| CCOc1c(OC)cc(CNNc2nccs2)cc1OC | > 100 µM (inactive) | > 100 µM (inactive) | > 100 µM (inactive) | 27 µM (inactive) | 4.57 µM (inactive) |  | > 100 µM (inactive) | > 100 µM (inactive) | > 100 µM (inactive) | > 100 µM (inactive) | > 100 µM (inactive) | 34.8 µM (inactive) | 67.6 µM (inactive) | > 100 µM (inactive) | > 100 µM (inactive) | 82.2 µM (inactive) | 32.7 µM (inactive) | > 100 µM (inactive) | 15 µM (inactive) | 19.3 µM (inactive) |
| O=C1CC(c2ccsc2)n2cccc21 (stereo not drawn) | > 100 µM (inactive) | > 100 µM (inactive) | > 100 µM (inactive) |  | > 100 µM (inactive) | > 100 µM (inactive) | > 100 µM (inactive) | > 100 µM (inactive) | > 100 µM (inactive) | > 100 µM (inactive) | > 100 µM (inactive) | 32.1 µM (inactive) | > 100 µM (inactive) | > 100 µM (inactive) | > 100 µM (inactive) |  | > 100 µM (inactive) | > 100 µM (inactive) | > 100 µM (inactive) | > 100 µM (inactive) |
| Nc1ccc(-c2ncc3cc(-c4cccc(-c5cc6cnc(-c7ccc(N)cc7)nc6c6ccccc56)c4)c4ccccc4c3n2)cc1 | > 100 µM (inactive) | > 100 µM (inactive) | > 100 µM (inactive) | > 100 µM (inactive) | > 100 µM (inactive) | > 100 µM (inactive) | > 100 µM (inactive) | > 100 µM (inactive) | > 100 µM (inactive) | > 100 µM (inactive) |  | > 100 µM (inactive) | > 100 µM (inactive) | > 100 µM (inactive) | > 100 µM (inactive) |  | > 100 µM (inactive) | > 100 µM (inactive) | > 100 µM (inactive) | > 100 µM (inactive) |
| COc1cc(C=O)ccc1Oc1nnnn1-c1ccccc1 |  | > 100 µM (inactive) | 86.7 µM (inactive) | > 100 µM (inactive) | > 100 µM (inactive) |  | 48.6 µM (inactive) |  | 42.7 µM (inactive) | > 100 µM (inactive) | 50.9 µM (inactive) | 34.8 µM (inactive) | 71.4 µM (inactive) | 19.6 µM (inactive) | 54.8 µM (inactive) | 84.1 µM (inactive) | 85.3 µM (inactive) | 45.7 µM (inactive) | 32.1 µM (inactive) | > 100 µM (inactive) |
| Cn1cnc(N2CCCC2)c(C#N)c1=S | > 100 µM (inactive) | > 100 µM (inactive) | > 100 µM (inactive) | > 100 µM (inactive) | > 100 µM (inactive) | > 100 µM (inactive) | > 100 µM (inactive) | > 100 µM (inactive) | > 100 µM (inactive) | > 100 µM (inactive) | > 100 µM (inactive) |  | 76.2 µM (inactive) | > 100 µM (inactive) | > 100 µM (inactive) | > 100 µM (inactive) | > 100 µM (inactive) | > 100 µM (inactive) | > 100 µM (inactive) | 94.4 µM (inactive) |
